As usually defined, the inhibition is how much of the control response was suppressed. Broadly, the pEC50 is the EC50 on a negative log10 scale, so that one unit is a factor of ten. Low readings indicate a high EC50, high ones a low EC50.

pEC50: −log10 of the molar value.

What all share (format): cell-based
Assay [1] relates to Wnt activity (Sp5-Luc reporter, human Sp5 promoter with eight TCF/LEF binding sites) in SW480 colon carcinoma cells. Nature of the assay: Screening assay for Wnt activity: Sp5-Luc reporter gene assay in SW480 cells. The settings on record: for inhibition at 10 µM: read-out: percent inhibition at 10 μM (given for EC50 of >10 μM); for pEC50: 10-point dose-response starting from 10 μM, overnight incubation. An outline of the steps: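 Luminescence (BrightGlo) read after overnight 37 °C exposure of Sp5-Luc SW480 reporter cells, 4,000/well in 1% FBS, to compound dosed 1:3 over 10 points from 10 μM with 0.1% DMSO. Values normalized to DMSO-only cells, fitted with variable-slope four-parameter model; where EC50 exceeds 10 μM, % inhibition at 10 μM reported.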

For another assay, the system named is SW480 colon cancer cells. Nature of the assay: Cell viability assay (CellTiter-Blue) in SW480 colon cancer cells. The settings on record: Homo sapiens, 96 h; for pEC50: four days incubation, CellTiter-Blue cell viability; for inhibition at 10 µM: four days, CellTiter-Blue, read-out: percent inhibition at 10 μM (given for EC50 of >10 μM). An outline of the steps: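 Four-day exposure of SW480 cells (~2×10^3/well) to compound from 10 μM down to 0.004 μM in 1:3 steps, in duplicate. Resorufin fluorescence from CellTiter-Blue after ~3 h served as the viability read-out. EC50 values came from nonlinear curve fits, with % inhibition at 10 μM given where EC50 >10 μM.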
For orientation: The colour change of resazurin is a common sign of viable cells or microbes.

The next assay concerns IL-6 in THP-1 cells. In words: Inhibition of IL-6 in LPS-stimulated THP-1 human monocyte cells (HTRF). Particulars: IL-6 HTRF; for pEC50: 500 ng/mL LPS, 22 hours; for inhibition at 10 µM: LPS, read-out: percent inhibition in brackets (given for EC50 >10 μM). A digest of the protocol:
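IL-6 was quantified by HTRF ratio after LPS (500 ng/mL, 22 h) stimulation of THP-1 monocytes pretreated 2 h with compound, 10-point 1:3 dilutions from 10 μM, 0.1% DMSO. Cells were held in 1% FBS for 24 h beforehand. Values normalised to DMSO; four-parameter EC50, or % inhibition at 10 μM above that.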
(Time-resolved FRET reads energy transfer from a long-lived donor to a nearby acceptor.)

Consider `Cc1ccc(-c2cncc3[nH]c(-c4n[nH]c5ccc(C6=CCNCC6)nc45)nc23)s1` [Compound 686, 3-(7-(5-Methylthiophen-2-yl)-3H-imidazo[4,5-c]pyridin-2-yl)-5-(1,2,3,6-tetrahydropyridin-4-yl)-1H-pyrazolo[4,3-b]pyridine], for which the inhibition at 10 µM is 52.6% in assay [1] and 23.8% in the assay on IL-6 in THP-1 cells. Moreover, the figures for the pEC50 (in assay [1]; in the assay on SW480 colon cancer cells; in the assay with IL-6 in THP-1 cells) were below 5.00, 5.21 and below 5.00, respectively.

Turning to `Cn1cc(-c2ccc3[nH]nc(-c4nc5c(-c6cc(F)cc(CNS(C)(=O)=O)c6)cncc5[nH]4)c3n2)cn1` [Compound 720, N-(3-Fluoro-5-(2-(5-(1-methyl-1H-pyrazol-4-yl)-1H-pyrazolo[4,3-b]pyridin-3-yl)-3H-imidazo[4,5-c]pyridin-7-yl)benzyl)methanesulfonamide], the inhibition at 10 µM in assay [1] is 16.4%; with SW480 colon cancer cells, 0%; with IL-6 in THP-1 cells, 44.7%. The pEC50 (in assay [1]; in the assay with SW480 colon cancer cells; in the assay with IL-6 in THP-1 cells) was below 5.00 throughout.

Consider `CS(=O)(=O)NCc1cc(F)cc(-c2cncc3[nH]c(-c4n[nH]c5ccc(-c6cncc(NC(=O)CC7CCNCC7)c6)nc45)nc23)c1` [Compound 725, N-(5-(3-(7-(3-Fluoro-5-(methylsulfonamidomethyl)phenyl)-3H-imidazo[4,5-c]pyridin-2-yl)-1H-pyrazolo[4,3-b]pyridin-5-yl)pyridin-3-yl)-2-(piperidin-4-yl)acetamide], for which the inhibition at 10 µM in assay [1] worked out at 11.2%; in the assay with SW480 colon cancer cells it was 14.6%; in the assay on IL-6 in THP-1 cells, 27.1%. The pEC50 (in assay [1]; in the assay on SW480 colon cancer cells; with IL-6 in THP-1 cells) was below 5.00 each time.

With `CN(C)CCNc1cc(F)cc(-c2cncc3[nH]c(-c4n[nH]c5ccc(-c6cncc(OCCN7CCCC7)c6)nc45)nc23)c1` [Compound 742, N^1-(3-Fluoro-5-(2-(5-(5-(2-(pyrrolidin-1-yl)ethoxy)pyridin-3-yl)-1H-pyrazolo[4,3-b]pyridin-3-yl)-3H-imidazo[4,5-c]pyridin-7-yl)phenyl)-N^2,N^2-dimethylethane-1,2-diamine], the results for the inhibition at 10 µM (in assay [1]; in the assay with SW480 colon cancer cells) were 17.1% and 8.2%, respectively. Besides, the figures for the pEC50 (in assay [1]; in the assay with SW480 colon cancer cells; with IL-6 in THP-1 cells) were below 5.00, below 5.00 and 5.05, respectively.

With `CN(C)CC(=O)Nc1cncc(-c2ccc3[nH]nc(-c4nc5c(-c6cccc(F)c6)cncc5[nH]4)c3n2)c1` [Compound 925, 2-(Dimethylamino)-N-(5-(3-(7-(3-fluorophenyl)-3H-imidazo[4,5-c]pyridin-2-yl)-1H-pyrazolo[4,3-b]pyridin-5-yl)pyridin-3-yl)acetamide], the inhibition at 10 µM in assay [1] turned out to be 23%; with SW480 colon cancer cells, 16.1%; with IL-6 in THP-1 cells it was 20.1%. Besides, the pEC50 (in assay [1]; in the assay with SW480 colon cancer cells; in the assay with IL-6 in THP-1 cells) was below 5.00 throughout.

In the case of `COc1cccc(-c2cncc3[nH]c(-c4n[nH]c5ccc(-c6cccnc6)nc45)nc23)c1` [Compound 949, 3-(7-(3-Methoxylphenyl)-3H-imidazo[4,5-c]pyridin-2-yl)-5-(pyridin-3-yl)-1H-pyrazolo[4,3-b]pyridine], the inhibition at 10 µM in assay [1] came to 18.2%; with SW480 colon cancer cells, 6.9%. The results for the pEC50 (in assay [1]; in the assay on SW480 colon cancer cells; in the assay with IL-6 in THP-1 cells) were below 5.00, below 5.00 and 6.17, respectively.

For `COc1cccc(-c2cncc3[nH]c(-c4n[nH]c5ccc(-c6cncc(NC(=O)Cc7ccccc7)c6)nc45)nc23)c1` [Compound 955, N-(5-(3-(7-(3-methoxylphenyl)-3H-imidazo[4,5-c]pyridin-2-yl)-1H-pyrazolo[4,3-b]pyridin-5-yl)pyridin-3-yl)-2-phenylacetamide], the inhibition at 10 µM in assay [1] stood at 21.5%; in the assay on SW480 colon cancer cells, 2.7%; in the assay on IL-6 in THP-1 cells it was 27.5%. Moreover, the pEC50 (in assay [1]; with SW480 colon cancer cells; with IL-6 in THP-1 cells) was below 5.00 in each case.

With `COc1cccc(-c2cncc3[nH]c(-c4n[nH]c5ccc(-c6cncc(NC(=O)CC(C)(C)C)c6)nc45)nc23)c1` [Compound 961, N-(5-(3-(7-(3-methoxylphenyl)-3H-imidazo[4,5-c]pyridin-2-yl)-1H-pyrazolo[4,3-b]pyridin-5-yl)pyridin-3-yl)-3,3-dimethylbutanamide], the inhibition at 10 µM in assay [1] came out at 0%; in the assay on SW480 colon cancer cells it was 0.4%; with IL-6 in THP-1 cells, 22.5%. Moreover, the pEC50 (in assay [1]; with SW480 colon cancer cells; in the assay on IL-6 in THP-1 cells) was below 5.00 throughout.

For `COc1cccc(-c2cncc3[nH]c(-c4n[nH]c5ccc(-c6cncc(NC(=O)C7CCCCC7)c6)nc45)nc23)c1` [Compound 967, N-(5-(3-(7-(3-Methoxylphenyl)-3H-imidazo[4,5-c]pyridin-2-yl)-1H-pyrazolo[4,3-b]pyridin-5-yl)pyridin-3-yl)cyclohexanecarboxamide], the inhibition at 10 µM amounted to 0% in assay [1], 10.8% in the assay on SW480 colon cancer cells and 33.9% in the assay with IL-6 in THP-1 cells. Moreover, the pEC50 (in assay [1]; with SW480 colon cancer cells; in the assay on IL-6 in THP-1 cells) was below 5.00 throughout.

`COc1cccc(-c2cncc3[nH]c(-c4n[nH]c5ccc(-c6cn[nH]c6)nc45)nc23)c1` [Compound 975, 3-(7-(3-Methoxylphenyl)-3H-imidazo[4,5-c]pyridin-2-yl)-5-(1H-pyrazol-4-yl)-1H-pyrazolo[4,3-b]pyridine]: the inhibition at 10 µM in assay [1] amounted to 2%; with SW480 colon cancer cells, 4.1%; in the assay with IL-6 in THP-1 cells it was 0%. In addition, the pEC50 (in assay [1]; in the assay with SW480 colon cancer cells; in the assay with IL-6 in THP-1 cells) was below 5.00 throughout.

As for `COc1cccc(-c2cncc3[nH]c(-c4n[nH]c5ccc(-c6cncc(OC7CCNCC7)c6)nc45)nc23)c1` [Compound 980, 3-(7-(3-Methoxylphenyl)-3H-imidazo[4,5-c]pyridin-2-yl)-5-(5-(piperidin-4-yloxy)pyridin-3-yl)-1H-pyrazolo[4,3-b]pyridine], the inhibition at 10 µM in assay [1] was determined as 25.8%; in the assay on SW480 colon cancer cells, 19.6%; with IL-6 in THP-1 cells, 34.1%. Also, the pEC50 (in assay [1]; in the assay with SW480 colon cancer cells; with IL-6 in THP-1 cells) was below 5.00 each time.

Take `COc1cccc(-c2cncc3[nH]c(-c4n[nH]c5ccc(-c6cncc(O)c6)nc45)nc23)c1` [Compound 985, 5-(3-(7-(3-Methoxylphenyl)-3H-imidazo[4,5-c]pyridin-2-yl)-1H-pyrazolo[4,3-b]pyridin-5-yl)pyridin-3-ol]: the inhibition at 10 µM in assay [1] was 7.8%; in the assay with SW480 colon cancer cells, 7.1%. Further, the pEC50 in assay [1] was below 5.00; in the assay with SW480 colon cancer cells, below 5.00; with IL-6 in THP-1 cells, 5.87.

Consider `NC1CN(c2cncc(-c3ccc4[nH]nc(-c5nc6c(-c7ccc(Cl)s7)cncc6[nH]5)c4n3)n2)C1` [Compound 1023, 1-(6-(3-(7-(5-Chlorothiophen-2-yl)-3H-imidazo[4,5-c]pyridin-2-yl)-1H-pyrazolo[4,3-b]pyridin-5-yl)pyrazin-2-yl)azetidin-3-amine], for which the figures for the inhibition at 10 µM (in assay [1]; in the assay with SW480 colon cancer cells) were 24.3% and 7.4%, respectively. Further, the pEC50 in assay [1] was below 5.00; in the assay with SW480 colon cancer cells, below 5.00; in the assay with IL-6 in THP-1 cells it was 7.01.

For the molecule `c1cc2c(cc1-c1cncc3[nH]c(-c4n[nH]c5ccc(C6CCNCC6)nc45)nc13)OCO2` [Compound 1063, 3-(7-(Benzo[d][1,3]dioxol-5-yl)-3H-imidazo[4,5-c]pyridin-2-yl)-5-(piperidin-4-yl)-1H-pyrazolo[4,3-b]pyridine], the inhibition at 10 µM in assay [1] is 10.5%; in the assay on SW480 colon cancer cells it was 4.8%; in the assay on IL-6 in THP-1 cells, 32.7%. The pEC50 (in assay [1]; in the assay on SW480 colon cancer cells; in the assay on IL-6 in THP-1 cells) was below 5.00 throughout.

Consider `C1=C(c2ccc3[nH]nc(-c4nc5c(-c6ccc7c(c6)OCO7)cncc5[nH]4)c3n2)CCNC1` [Compound 1064, 3-(7-(Benzo[d][1,3]dioxol-5-yl)-3H-imidazo[4,5-c]pyridin-2-yl)-5-(1,2,3,6-tetrahydropyridin-4-yl)-1H-pyrazolo[4,3-b]pyridine], for which the results for the inhibition at 10 µM (in assay [1]; in the assay with SW480 colon cancer cells; with IL-6 in THP-1 cells) were 9.5%, 0.1% and 21.1%, respectively. The pEC50 (in assay [1]; with SW480 colon cancer cells; with IL-6 in THP-1 cells) was below 5.00 each time.

Consider `Cc1ncc(-c2ccc3[nH]nc(-c4nc5c(-c6cccc(F)c6)cncc5[nH]4)c3n2)s1` [Compound 1081, 5-(3-(7-(3-Fluorophenyl)-3H-imidazo[4,5-c]pyridin-2-yl)-1H-pyrazolo[4,3-b]pyridin-5-yl)-2-methylthiazole], for which the inhibition at 10 µM in assay [1] was found to be 38%; in the assay on SW480 colon cancer cells, 23.5%; in the assay on IL-6 in THP-1 cells it was 7.7%. The pEC50 (in assay [1]; in the assay with SW480 colon cancer cells; in the assay with IL-6 in THP-1 cells) was below 5.00 in each case.

The record behind these values is patent US10188634B2, “3-(3H-imidazo[4,5-C]pyridin-2-yl)-1 H-pyrazolo[4,3-B]pyridines and therapeutic uses thereof” (Samumed, LLC, priority 2015, dated 2019).
